Consider six compounds from PubChem BioAssay AID624091 (Broad Institute, 2012).

Activity calls are given as the source filed them. No rule for the calls is given here.

One may read the IC50 as the point on the concentration scale where inhibition reaches its midpoint.

What all share (assay): selectivity of inhibitors across GSK3a/b, CDKs – biochemical, selected compounds, dry powder samples, selectivity assay for GSK3beta inhibitor project, dose response (AID 624091)
In assay [1] the target is Cyclin-dependent kinase 1 (Homo sapiens) (UniProt P06493). The conditions noted are these: Carna mobility shift kinase assay, LabChip, panel; CDC2/CycB1.
Sequence of Cyclin-dependent kinase 1 (Homo sapiens) (P06493 whole entry, looked up): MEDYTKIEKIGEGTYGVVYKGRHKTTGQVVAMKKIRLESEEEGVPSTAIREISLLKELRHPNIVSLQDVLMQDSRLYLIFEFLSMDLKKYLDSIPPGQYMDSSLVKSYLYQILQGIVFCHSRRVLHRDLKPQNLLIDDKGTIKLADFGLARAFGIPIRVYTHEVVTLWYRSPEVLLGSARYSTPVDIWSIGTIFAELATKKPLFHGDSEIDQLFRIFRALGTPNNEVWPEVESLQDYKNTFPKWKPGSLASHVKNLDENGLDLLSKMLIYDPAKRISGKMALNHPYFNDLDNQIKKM
Assay [2] deals with Cyclin-dependent kinase 2 (Homo sapiens) (UniProt P24941). The conditions noted are these: Carna mobility shift kinase assay, LabChip, panel.
Assay [3] has as its target Glycogen synthase kinase-3 alpha (Homo sapiens) (UniProt P49840). The conditions noted are these: Carna mobility shift kinase assay, LabChip, panel; GSK3a.
Assay [4] has as its target Glycogen synthase kinase-3 beta (Homo sapiens) (UniProt P49841). The conditions noted are these: Carna mobility shift kinase assay, LabChip, panel; GSK3b.
Assay [5] concerns the target Cyclin-dependent kinase 5 (Homo sapiens) (UniProt Q00535). Conditions: Carna mobility shift kinase assay, LabChip, panel; CDK5/p25.

Sequence of Glycogen synthase kinase-3 alpha (Homo sapiens) (P49840 whole entry, looked up): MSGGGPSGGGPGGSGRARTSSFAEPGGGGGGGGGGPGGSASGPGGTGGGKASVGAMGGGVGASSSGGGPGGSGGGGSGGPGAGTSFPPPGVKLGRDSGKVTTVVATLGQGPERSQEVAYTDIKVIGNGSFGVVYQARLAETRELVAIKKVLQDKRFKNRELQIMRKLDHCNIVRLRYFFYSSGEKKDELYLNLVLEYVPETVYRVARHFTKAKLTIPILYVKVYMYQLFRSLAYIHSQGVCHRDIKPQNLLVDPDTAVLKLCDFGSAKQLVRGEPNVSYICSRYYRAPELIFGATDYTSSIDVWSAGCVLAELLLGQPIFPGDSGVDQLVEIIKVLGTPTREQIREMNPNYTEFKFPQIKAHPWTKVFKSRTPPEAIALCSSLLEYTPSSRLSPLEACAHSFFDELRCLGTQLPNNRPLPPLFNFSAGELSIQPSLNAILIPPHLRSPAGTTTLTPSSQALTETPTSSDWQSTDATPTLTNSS
Sequence of Cyclin-dependent kinase 5 (Homo sapiens) (Q00535 whole entry, looked up): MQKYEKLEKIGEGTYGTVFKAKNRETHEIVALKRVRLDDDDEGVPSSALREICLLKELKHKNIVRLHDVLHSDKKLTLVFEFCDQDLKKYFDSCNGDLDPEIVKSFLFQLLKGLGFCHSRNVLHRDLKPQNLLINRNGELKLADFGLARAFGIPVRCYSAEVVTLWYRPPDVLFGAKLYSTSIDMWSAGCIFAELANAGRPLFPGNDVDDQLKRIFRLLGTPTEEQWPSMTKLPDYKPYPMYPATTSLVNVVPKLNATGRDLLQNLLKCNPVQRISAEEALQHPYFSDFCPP
Sequence of Glycogen synthase kinase-3 beta (Homo sapiens) (P49841 whole entry, looked up): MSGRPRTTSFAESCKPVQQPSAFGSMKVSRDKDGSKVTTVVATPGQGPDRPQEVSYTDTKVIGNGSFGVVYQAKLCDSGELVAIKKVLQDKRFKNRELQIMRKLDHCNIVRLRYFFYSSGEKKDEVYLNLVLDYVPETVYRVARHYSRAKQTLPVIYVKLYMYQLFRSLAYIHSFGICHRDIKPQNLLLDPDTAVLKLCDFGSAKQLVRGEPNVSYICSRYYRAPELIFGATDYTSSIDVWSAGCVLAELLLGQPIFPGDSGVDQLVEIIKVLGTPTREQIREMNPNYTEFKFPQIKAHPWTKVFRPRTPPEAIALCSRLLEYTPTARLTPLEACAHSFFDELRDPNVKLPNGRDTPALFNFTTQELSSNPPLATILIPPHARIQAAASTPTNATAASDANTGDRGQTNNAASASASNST

Regarding `COc1ccccc1C1C2=C(CC(C)(C)CC2=O)Nc2n[nH]c(C(F)(F)F)c21` (stereo not drawn), the IC50 is > 10000 nM (inactive) in assay [1], 23.4 nM in assay [3] and 22.8 nM in assay [4]. Moreover, the IC50 result in assay [2] (CDK2/CycA2) and in assay [2] (CDK2/CycE1) was “inactive” each time.

Consider `COc1ccccc1[C@@H]1C2=C(CC(C)(C)CC2=O)Nc2n[nH]c(C(F)(F)F)c21`, for which the values for the IC50 in assay [1], in assay [3] and in assay [4] were > 10000 nM (inactive), 13.2 nM and 12.4 nM, respectively. Further, the IC50 result in assay [2] (CDK2/CycA2) and in assay [2] (CDK2/CycE1) was “inactive” each time.

Turning to `COc1ccccc1[C@H]1C2=C(CC(C)(C)CC2=O)Nc2n[nH]c(C(F)(F)F)c21`, the IC50 is > 10000 nM (inactive) in assay [1]; > 10000 nM (inactive) in assay [2] (CDK2/CycA2); > 10000 nM (inactive) in assay [2] (CDK2/CycE1); 980 nM in assay [3]; 613 nM in assay [4].

Consider `Cc1[nH]nc2c1[C@H](c1ccccc1C(F)(F)F)C1=C(CC(C)(C)CC1=O)N2`, for which the IC50 in assay [1], in assay [2] (CDK2/CycA2), in assay [2] (CDK2/CycE1) and in assay [5] was > 10000 nM (inactive) each time. For the same compound, the IC50 result in assay [3] and in assay [4] was “inactive” in each case.

On to `Cc1[nH]nc2c1C(c1ccccc1C(F)(F)F)C1=C(CC(C)(C)CC1=O)N2` (stereo not drawn), for which the IC50 entry in assay [1] and in assay [2] (CDK2/CycA2) was “inactive” throughout. Also, the IC50 was 808 nM in assay [2] (CDK2/CycE1), 223 nM in assay [5], 14.6 nM in assay [3] and 26.8 nM in assay [4].

For the compound `Cc1[nH]nc2c1[C@@H](c1ccccc1C(F)(F)F)C1=C(CC(C)(C)CC1=O)N2`, the half-inhibitory concentration (IC50) in assay [1] is 839 nM; in assay [2] (CDK2/CycA2), 561 nM; in assay [2] (CDK2/CycE1) it was 427 nM; in assay [5], 127 nM; in assay [3] it was 7.79 nM; in assay [4], 15.5 nM.
